Measured values as given in ChEMBL document CHEMBL1135110, “Structure-based design of peptidomimetic antagonists of p56(lck) SH2 domain” (Bioorg Med Chem Lett, 2002).
pIC50: −log10 of the molar value. Non-standard residues stand in square brackets, D forms with d. Residues, ends and D or L forms follow the SMILES beside them. pY = N[C@@H](Cc1ccc(OP(=O)(O)O)cc1)C(=O)O

target: Tyrosine-protein kinase Lck (Homo sapiens, UniProt P06239); assay: Inhibitory activity towards p56 Lck tyrosine kinase SH2 domain using scintillation proximity assay (SPA)
Sequence (P06239 whole entry, the tested form may be a part): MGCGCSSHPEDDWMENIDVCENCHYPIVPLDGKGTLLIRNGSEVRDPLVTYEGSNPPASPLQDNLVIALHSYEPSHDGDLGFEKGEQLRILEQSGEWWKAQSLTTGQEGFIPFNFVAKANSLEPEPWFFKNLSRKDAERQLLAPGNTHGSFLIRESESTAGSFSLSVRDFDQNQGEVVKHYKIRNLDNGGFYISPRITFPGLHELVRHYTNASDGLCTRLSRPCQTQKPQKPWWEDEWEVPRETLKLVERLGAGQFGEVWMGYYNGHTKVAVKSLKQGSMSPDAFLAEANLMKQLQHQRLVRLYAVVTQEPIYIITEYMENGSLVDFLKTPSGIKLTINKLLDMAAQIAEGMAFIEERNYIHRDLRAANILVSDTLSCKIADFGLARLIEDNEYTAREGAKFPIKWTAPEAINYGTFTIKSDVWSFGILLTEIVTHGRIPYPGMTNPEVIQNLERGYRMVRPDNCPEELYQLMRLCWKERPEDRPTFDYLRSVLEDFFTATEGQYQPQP

Row | SMILES | pIC50
1 | CCCNC(=O)[C@@H]1CCCN2C(=O)CC[C@H](NC(=O)[C@H](Cc3ccc(OP(=O)(O)O)cc3)NC(C)=O)C(=O)N12 | 5.22
2 | CC[C@H](C)[C@H](NC(=O)[C@@H]1CCCN1C(=O)[C@@H](NC(=O)[C@H](CCC(=O)O)NC(=O)[C@H](CCC(=O)O)NC(=O)[C@H](Cc1ccc(OP(=O)(O)O)cc1)NC(=O)[C@H](CCC(N)=O)NC(=O)[C@@H]1CCCN1C(=O)[C@@H](N)CCC(=O)O)[C@@H](C)CC)C(=O)N[C@@H](Cc1ccc(O)cc1)C(=O)N[C@@H](CC(C)C)C(=O)O (H-EPQ[pY]EEIPIYL-OH) | 6.44
3 | CC(=O)N[C@@H](Cc1ccc(OP(=O)(O)O)cc1)C(=O)N[C@H]1CCC(=O)N2CCC[C@@H](C(=O)NC3CCc4ccccc43)N2C1=O (stereo partly specified) | 5.92
4 | CC(=O)N[C@@H](Cc1ccc(OP(=O)(O)O)cc1)C(=O)N[C@H]1CCC(=O)N2CCC[C@@H](C(=O)NCc3cccc4ccccc34)N2C1=O | 5.72
5 | CC(=O)N[C@@H](Cc1ccc(OP(=O)(O)O)cc1)C(=O)N[C@H]1CCC(=O)N2CCC[C@@H](C(=O)N[C@@H]3C[C@H](C(=O)O)c4ccccc43)N2C1=O | 7.52
6 | CC(=O)N[C@@H](Cc1ccc(OP(=O)(O)O)cc1)C(=O)N[C@H]1CCC(=O)N2CCC[C@@H](C(=O)NC3CC(C(=O)O)c4ccccc43)N2C1=O (stereo in doubt; 34) | 5.11
7 | CC(=O)N[C@@H](Cc1ccc(OP(=O)(O)O)cc1)C(=O)N[C@H]1CCC(=O)N2CCC[C@@H](C(=O)N[C@H]3C[C@@H](C(=O)O)c4ccccc43)N2C1=O | 5.55
8 | CC(=O)N[C@@H](Cc1ccc(OP(=O)(O)O)cc1)C(=O)N[C@H]1CCC(=O)N2CCC[C@@H](C(=O)NCC3CCCCC3)N2C1=O | 5.80
9 | CC(=O)N[C@@H](Cc1ccc(OP(=O)(O)O)cc1)C(=O)N[C@H]1CCC(=O)N2CCC[C@@H](C(=O)NCc3ccccc3)N2C1=O | 5.82
10 | CC(=O)N[C@@H](Cc1ccc(OP(=O)(O)O)cc1)C(=O)N[C@H]1CCC(=O)N2CCC[C@@H](C(=O)N[C@@H]3C[C@@H](C(=O)O)c4ccccc43)N2C1=O | 7.00
11 | CCCCCNC(=O)[C@@H]1CCCN2C(=O)CC[C@H](NC(=O)[C@H](Cc3ccc(OP(=O)(O)O)cc3)NC(C)=O)C(=O)N12 | 5.74
12 | CNC(=O)[C@H](CCC(=O)O)NC(=O)[C@H](CCC(=O)O)NC(=O)[C@H](Cc1ccc(OP(=O)(O)O)cc1)NC(C)=O (Ac-[pY]-Glu-Glu-NHMe) | 4.77
13 | CC(=O)N[C@@H](Cc1ccc(OP(=O)(O)O)cc1)C(=O)N[C@H]1CCC(=O)N2CCC[C@@H](C(=O)NCc3ccc(Cl)cc3)N2C1=O | 6.40
14 | CC(=O)N[C@@H](Cc1ccc(OP(=O)(O)O)cc1)C(=O)N[C@H]1CCC(=O)N2CCC[C@@H](C(=O)Nc3cccc4ccccc34)N2C1=O | 5.96
15 | CCCCNC(=O)[C@@H]1CCCN2C(=O)CC[C@H](NC(=O)[C@H](Cc3ccc(OP(=O)(O)O)cc3)NC(C)=O)C(=O)N12 | 5.72
16 | CC[C@@H](C)CNC(=O)[C@@H]1CCCN2C(=O)CC[C@H](NC(=O)[C@H](Cc3ccc(OP(=O)(O)O)cc3)NC(C)=O)C(=O)N12 | 5.92
17 | CC[C@H](C)[C@H](NC(=O)[C@@H]1CCCN2C(=O)CC[C@H](NC(=O)[C@H](Cc3ccc(OP(=O)(O)O)cc3)NC(C)=O)C(=O)N12)C(=O)NC | 5.80
18 | CC[C@H](C)[C@H](NC(=O)[C@H](CCC(=O)O)NC(=O)[C@H](CCC(=O)O)NC(=O)[C@H](Cc1ccc(OP(=O)(O)O)cc1)NC(C)=O)C(=O)N1CCC[C@@H]1C(=O)NC | 5.80
19 | CC(=O)N[C@@H](Cc1ccc(OP(=O)(O)O)cc1)C(=O)N[C@H]1CCC(=O)N2CCC[C@@H](C(=O)NCC(C)(C)C)N2C1=O | 5.74
20 | CCNC(=O)[C@@H]1CCCN2C(=O)CC[C@H](NC(=O)[C@H](Cc3ccc(OP(=O)(O)O)cc3)NC(C)=O)C(=O)N12 | 5.07
21 | CC(=O)N[C@@H](Cc1ccc(OP(=O)(O)O)cc1)C(=O)N[C@H]1CCC(=O)N2CCC[C@@H](C(=O)N[C@H]3C[C@H](C(=O)O)c4ccccc43)N2C1=O | 5.70
22 | CC(=O)N[C@@H](Cc1ccc(OP(=O)(O)O)cc1)C(=O)N[C@H]1CCC(=O)N2CCC[C@@H](C(=O)NCC34CC5CC(CC(C5)C3)C4)N2C1=O | 5.96
23 | CC(=O)N[C@@H](Cc1ccc(OP(=O)(O)O)cc1)C(=O)N[C@H]1CCC(=O)N2CCC[C@@H](C(=O)NC3CC(C(=O)O)c4ccccc43)N2C1=O (stereo in doubt; 35) | 5.14
24 | CC(=O)N[C@@H](Cc1ccc(OP(=O)(O)O)cc1)C(=O)N[C@H]1CCC(=O)N2CCC[C@@H](C(=O)NCc3ccc(O)cc3)N2C1=O | 5.00
25 | CNC(=O)[C@H](CCC(=O)O)NC(=O)[C@H](Cc1ccc(OP(=O)(O)O)cc1)NC(C)=O (Ac-[pY]-Glu-NHMe) | 3.46
26 | CC[C@H](C)[C@H](NC(=O)[C@H](CCC(=O)O)NC(=O)[C@H](CCC(=O)O)NC(=O)[C@H](Cc1ccc(OP(=O)(O)O)cc1)NC(C)=O)C(=O)NC | 5.70
